Assay results from patent publication US8754104B2, “Crystalline salts of quinoline compounds and methods for preparing them” (Active Biotech AB, priority 2004, dated 2014).
Structures can show the parent of a compound that is named as a salt. Where two headings read alike, the source gives them in different places.

What was measured:
[1] = Investigation of the degradation rate (reactivity index) in solution; assay type: physicochemical; conditions: 1-% 0.01M hydrochloric acid in n-propanol, 45 to 60° C., HPLC; relative to Roquinimex defined to 1.0; index 2.0 = 26% per hour
Experimental: The degradation rate, hereinafter called the reactivity index, of compound of formula (I) was determined in solution. Roquinimex (Merck Index 12th Ed., No. 8418; Linomide®, LS2616, N-methyl-N-phenyl-1,2-dihydro-4-hydroxy-1-methyl-2-oxo-3-quinolinecarboxamide) was selected as a reference compound with the reactivity index defined to 1.0. A medium of 1-% 0.01M hydrochloric acid in n-propanol was selected. The reaction temperature was in the range of 45 to 60° C. The 3-quinolinecarboxamide derivative of formula (I) was added to the n-propanol solution. The reaction transfers the compound to an n-propylester. The reaction was stopped after 0, 2 and 4 hours, and analysis was carried out by means of HPLC with UV detection. The disappearance of the 3-quinolinecarboxamide derivative was used for evaluation of the reactivity index, but as an alternative also the formation of the n-propylester may be used. A reactivity index of […] at 60° C., a reactivity index of 2.0 corresponds to a degradation rate of 26% per hour etc.

[2] = Compatibility study, binary mixtures (1:1) of excipient and test substance; assay type: physicochemical
Description: Generally, any tendency of instability is exacerbated when a compound of formula (II) is formulated with various excipients. It is clear that the salt form is preferred as drug substance in any binary mixtures of said compound.

[3] = assay type: physicochemical; conditions: for Degradation (percentage increase of related substances): 6 months
Experimental: Upon storage without any special precautions being taken, some 3-quinolinecarboxamide derivatives of formula (I) are degraded at an unacceptable rate. At storage during accelerated conditions, that is 40° C. and a relative humidity of 75%, the degradation of some 3-quinoline-carboxamide derivatives can exceed 2% in a period of 6 months (Table 1).
This is evident from a comparison of N-ethyl-N-phenyl-5-chloro-1,2-dihydro-4-hydroxy-1-methyl-2-oxo-3-quinolinecarboxamide (hereinafter called compound A) with the sodium salt of N-ethyl-N-phenyl-5-chloro-1,2-dihydro-4-hydroxy-1-methyl-2-oxo-3-quinolinecarboxamide (hereinafter called compound A sodium). While at 40° C. and a relative humidity of 75% less than 0.01% of compound A sodium in solid state is converted to degradation products in a period of 24 months, 0.31% of compound A is degraded during a 6-month period. Another example of a 3-quinolinecarboxamide derivative susceptible to degradation is N-ethyl-N-phenyl-5-ethyl-1,2-dihydro-4-hydroxy-1-methyl-2-oxo-3-quinolinecarboxamide (hereinafter called compound B), see Table 1.

[4] = Solubility in water at room temperature; assay type: physicochemical; conditions: for solubility: water
[5] = 1:1 mixture with Colloidal silica (Aerosil 200), +40° C./75% RH, 6 months
[6] = 1:1 mixture with Maize Starch, +40° C./75% RH, 6 months
[7] = 1:1 mixture with Mannitol (Pearlitol 200SD), +40° C./75% RH, 6 months
[8] = 1:1 mixture with Microcrystalline Cellulose (Avicel PH-, +40° C./75% RH, 6 months)

**Q.** For `CN(C(=O)c1c(O)c2c(Cl)cccc2n(C)c1=O)c1ccc(F)cc1F` [Compound C, N-methyl-N-(2,4-difluorophenyl)-5-chloro-1,2-dihydro-4-hydroxy-1-methyl-2-oxo-3-quinolinecarboxamide], which Reactivity index [1] is on record?
**A.** The Reactivity index was 2.6.

**Q.** Which “Degradation (percentage increase of related substances)” value [2, 5] does the source give for `CCN(C(=O)c1c(O)c2c(Cl)cccc2n(C)c1=O)c1ccccc1` [Compound A, N-ethyl-N-phenyl-5-chloro-1,2-dihydro-4-hydroxy-1-methyl-2-oxo-3-quinolinecarboxamide] here?
**A.** The value was 20%.

**Q.** What about the “Degradation (percentage increase of related substances)” value [2, 6] of the same compound?
**A.** Its value is 0.41%.

**Q.** And the “Degradation (percentage increase of related substances)” value [2, 7]?
**A.** Its value is 0.45%.

**Q.** What about the “Degradation (percentage increase of related substances)” value [2, 8] of the same compound?
**A.** The value was 1.1%.

**Q.** And the Reactivity index [1]?
**A.** The Reactivity index was 3.1.

**Q.** What about the ““Shelf-life” (storage time without degradation exceeding 0.5%)” value [3] of the same compound?
**A.** The value was greater than 6 months.

**Q.** And the “Degradation (percentage increase of related substances)” value [3]?
**A.** Its value is 0.31%.

**Q.** With `Cc1cccc2c1c(O)c(C(=O)N(C)c1ccc(C(F)(F)F)cc1)c(=O)n2C` [Compound D, N-methyl-N-(4-trifluorophenyl)-1,2-dihydro-1,5-dimethyl-4-hydroxy-1-methyl-2-oxo-3-quinolinecarboxamide] as the compound, how does the Reactivity index [1] read?
**A.** Its Reactivity index is greater than 10.

**Q.** For `CCc1cccc2c1c(O)c(C(=O)N(CC)c1ccccc1)c(=O)n2C.[Ca]` [Example 6A, Crystalline N-Ethyl-N-phenyl-5-ethyl-1,2-dihydro-4-hydroxy-2-methyl-2-oxo-3-quinolinecarboxainide calcium salt], which Solubility in water ([4]; room temperature) is on record?
**A.** The Solubility in water was 300 µg/mL.

**Q.** With `CCc1cccc2c1c(O)c(C(=O)N(CC)c1ccccc1)c(=O)n2C` [Example 7, N-Ethyl-N-phenyl-5-ethyl-1,2-dihydro-4-hydroxy-1-methyl-2-oxo-3-quinolinecarboxamide zinc salt] as the compound, how does the solubility ([4]; room temperature) read?
**A.** Its solubility is 300 µg/mL.

**Q.** With `CCN(C(=O)c1c(O)c2c3c(ccc2n(C)c1=O)OCO3)c1ccccc1` [Compound E, N-ethyl-N-phenyl-5,6-methylenedioxy-1,2-dihydro-4-hydroxy-1-methyl-2-oxo-3-quinolinecarboxamide] as the compound, how does the Reactivity index [1] read?
**A.** Its Reactivity index is 2.9.

**Q.** Which Reactivity index [1] does the source give for `CN(C(=O)c1c(O)c2ccccc2n(C)c1=O)c1ccccc1` [Roquinimex, N-methyl-N-phenyl-1,2-dihydro-4-hydroxy-1-methyl-2-oxo-3-quinolinecarboxamide, reference compound] here?
**A.** Its Reactivity index is 1.0.

**Q.** Which “Solubility in water (in words)” value [4] does the source give for `CCN(C(=O)c1c(O)c2c(Cl)cccc2n(C)c1=O)c1ccccc1` [Example 3, N-Ethyl-N-phenyl-5-chloro-1,2-dihydro-4-hydroxy-1-methyl-2-oxo-3-quinolinecarboxamide calcium salt] here?
**A.** The value was “sparingly soluble in water”.

**Q.** And the solubility ([4]; room temperature)?
**A.** The solubility was roughly 1000 µg/mL.

**Q.** With `CCN(C(=O)c1c(O)c2c(SC)cccc2n(C)c1=O)c1ccccc1` [Compound F, N-ethyl-N-phenyl-5-methylthio-1,2-dihydro-4-hydroxy-1-methyl-2-oxo-3-quinolinecarboxamide] as the compound, how does the Reactivity index [1] read?
**A.** Its Reactivity index is greater than 10.

**Q.** Which results are given for `CCc1cccc2c1c(O)c(C(=O)N(CC)c1ccccc1)c(=O)n2C` [Compound B, N-ethyl-N-phenyl-5-ethyl-1,2-dihydro-4-hydroxy-1-methyl-2-oxo-3-quinolinecarboxamide]?
**A.** Reactivity index [1]: 4.6; “Shelf-life” (storage time without degradation exceeding 0.5%) [3]: <1 months; Degradation (percentage increase of related substances) [3]: 2.0%

**Q.** Which results are given for `CCN(C(=O)c1c(O)c2c(Cl)cccc2n(C)c1=O)c1ccccc1.[Na]` [Compound A sodium, N-Ethyl-N-phenyl-5-chloro-1,2-dihydro-4-hydroxy-1-methyl-2-oxo-3-quinolinecarboxamide sodium salt]?
**A.** solubility ([4]; room temperature): 138000 µg/mL; Degradation (percentage increase of related substances) [2, 5]: 1.5%; Degradation (percentage increase of related substances) [2, 6]: 0.05%; Degradation (percentage increase of related substances) [2, 7]: 0.05%; Degradation (percentage increase of related substances) [2, 8]: 0.31%; “Shelf-life” (storage time without degradation exceeding 0.5%) [3]: >6 months; Degradation (percentage increase of related substances) [3]: <0.01%^3; Converted to degradation products ([3]; 24 months): less than 0.01%

**Q.** For `CCc1cccc2c1c(O)c(C(=O)N(CC)c1ccccc1)c(=O)n2C.[Li]` [Example 5, N-Ethyl-N-phenyl-5-ethyl-1,2-dihydro-4-hydroxy-1-methyl-2-oxo-3-quinolinecarboxamide lithium salt], which solubility ([4]; room temperature) is on record?
**A.** The solubility was 18000 µg/mL.
